Ki data for nine compounds are collected here from patent US20030166687A1, “ALPHA-HYDROXY,-AMINO AND -FLUORO DERIVATIVES OF BETA-SULPHONYL HYDROXAMIC ACIDS AS MATRIX METALLOPROTEINASES INHIBITORS” (priority 2000, published 2003).

The target in the experiment is gelatinase. Description: MMP particle concentration fluorescence assay, gelatinase. Format: biochemical. Particulars: in vitro; 15 min preincubation, 1-3 hours with substrate at room temperature, pH 7.5. The procedure:
Inhibitory activity is evaluated in one or more of the MMP enzymes (stromelysin, gelatinase, and collagenase) in vitro using particle concentration fluorescence assay. An inhibitor binds to MMP enzymes which prevents the degradation of a substrate by stromelysin, gelatinase, or collagenase. The substrate has attached to it a fluorescein and a biotin moiety. The intact substrate then binds to an avidin-coated particle via the biotin moiety. Once the particle is washed and dried, a fluorescent signal is generated since the fluorescent group is attached to the particle. Without an inhibitor present, the substrate is degraded by MMP enzymes and the fluorescein group is removed, therefore, no fluorescent signal can be detected. Testing compounds are dissolved in DMSO to the desired concentration, then the solutions are diluted to 1:5 with MMP buffer (50 mM Tris-HCl, pH 7.5; 150 mM NaCl; 0.02% NaN3). Serial two-fold dilutions of each compound are prepared. A concentrated, activated enzyme solution is transferred into each plate of the testing compounds, and the mixture is incubated at room temperature for 15 minutes. Thawed MMP substrate is then added into all plates, and the plates are incubated in the dark for 1-3 hours at room temperature. At this point, the substrate mixture is mixed with 0.1% avidin-coated polystyrene particles. After 15 minutes, the fluorescence values are measured following filtration and washing of the beads. Ki values are then calculated.
Broadly, the Ki is a dissociation constant, usually derived from enzyme kinetics or from competition with a known ligand. A lower Ki goes with higher affinity. With `COc1ccc(S(=O)(=O)CC(O)(CS(=O)(=O)c2ccc(F)cc2)C(=O)NO)cc1` (stereo not drawn) [Example 2, N-hydroxy-2-hydroxy-2-[(4-methoxybenzenesulfonyl)methyl]-3-(4-fluorobenzenesulfonyl)-propionamide], the Ki amounted to 0.031 µM.

`COc1ccc(S(=O)(=O)CC(O)(CNC(=O)c2ccccc2)C(=O)NO)cc1` (stereo not drawn) [Example 5, N-hydroxy-2-hydroxy-2-[(4-methoxybenzenesulfonyl)methyl]-3-(N-benzenecarbonylamino)-propionamide] registered an inhibition constant Ki of 0.023 µM.

`COc1ccc(S(=O)(=O)CC(O)(CS(=O)(=O)c2ccc(-c3ccccc3)cc2)C(=O)NO)cc1` (racemic) [Example 1, N-hydroxy-2-hydroxy-2-[(4-methoxybenzenesulfonyl)methyl]-3-(4-phenylbenzenesulfonyl)-propionamide]: the Ki was determined as 0.0019 µM.

`COc1ccc(C(=O)NCC(O)(CS(=O)(=O)c2ccc(OC)cc2)C(=O)NO)cc1` (stereo not drawn) [Example 7, N-hydroxy-2-hydroxy-2-[(4-methoxybenzenesulfonyl)methyl]-3-(N-(4-methoxybenzenecarbonyl)amino)-propionamide] showed an inhibition constant Ki of 0.017 µM.

Take `CCCCc1ccc(S(=O)(=O)CC(O)(CS(=O)(=O)c2ccc(OC)cc2)C(=O)NO)cc1` (stereo not drawn) [Example 3, N-hydroxy-2-hydroxy-2-[(4-methoxybenzenesulfonyl)methyl]-3-(4-n-butylbenzenesulfonyl)-propionamide]: the inhibition constant (Ki) is 0.013 µM.

`COc1ccc(S(=O)(=O)CC(O)(CS(=O)(=O)c2ccc(-c3ccccc3)cc2)C(=O)NO)cc1` (single isomer, unassigned) [1, Enantiomer A] displayed an inhibition constant (Ki) of 0.0085 µM.

On to `COc1ccc(S(=O)(=O)CC(O)(CS(=O)(=O)c2ccc(OC)cc2)C(=O)NO)cc1` [Example 4, N-hydroxy-2-hydroxy-2-[(4-methoxybenzenesulfonyl)methyl]-3-(4-methoxybenzenesulfonyl)-propionamide], for which the Ki worked out at 0.0075 µM.

Turning to `COc1ccc(S(=O)(=O)CC(O)(CNC(=O)C2CCCC2)C(=O)NO)cc1` (stereo not drawn) [Example 6, N-hydroxy-2-hydroxy-2-[(4-methoxybenzenesulfonyl)methyl]-3-[N-(cyclopentylcarbonyl)amino]-propionamide], the affinity corresponds to a Ki of 0.07 µM.

`COc1ccc(S(=O)(=O)CC(O)(CS(=O)(=O)c2ccc(-c3ccccc3)cc2)C(=O)NO)cc1` (single isomer, unassigned) [1, Enantiomer B] came in with a Ki of 0.00034 µM. Against the preceding compound, the Ki is about 210-fold lower.
